This is an account of results in ChEMBL document CHEMBL5528085, “Subtle Structural Changes across the Boundary between A2AR/A2BR Dual Antagonism and A2BR Antagonism: A Novel Class of 2-Aminopyrimidine-Based Derivatives” (J Med Chem, 2024).

Activity calls are given as the source filed them. The rule behind the calls is not given here.

Assay [1] deals with T1, Adenosine receptor A2a (Homo sapiens, UniProt P29274). The experiment in a line: Antagonist activity at human adenosine 2A receptor overexpressed in HEK293 cells preincubated for 0.5 hrs followed by NECA stimulation by GloSensor cAMP assay. The assay is classed as functional, cell-based. (Changes in cAMP serve as a functional read-out for many G protein-coupled receptors.)
T1 sequence (P29274 whole entry): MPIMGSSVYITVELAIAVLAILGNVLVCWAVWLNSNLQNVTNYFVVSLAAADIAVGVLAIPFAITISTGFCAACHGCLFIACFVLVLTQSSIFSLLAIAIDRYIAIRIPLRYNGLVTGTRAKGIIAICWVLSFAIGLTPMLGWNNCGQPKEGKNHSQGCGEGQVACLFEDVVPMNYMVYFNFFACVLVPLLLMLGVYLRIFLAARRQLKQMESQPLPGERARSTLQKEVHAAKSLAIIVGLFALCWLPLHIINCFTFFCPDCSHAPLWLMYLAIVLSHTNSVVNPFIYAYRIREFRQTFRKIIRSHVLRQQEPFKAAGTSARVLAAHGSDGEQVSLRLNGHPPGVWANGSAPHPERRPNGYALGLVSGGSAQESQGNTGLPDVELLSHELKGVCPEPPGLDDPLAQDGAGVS

The target in assay [2] is T2, Adenosine receptor A2b (Homo sapiens, UniProt P29275).
T2 sequence (P29275 whole entry): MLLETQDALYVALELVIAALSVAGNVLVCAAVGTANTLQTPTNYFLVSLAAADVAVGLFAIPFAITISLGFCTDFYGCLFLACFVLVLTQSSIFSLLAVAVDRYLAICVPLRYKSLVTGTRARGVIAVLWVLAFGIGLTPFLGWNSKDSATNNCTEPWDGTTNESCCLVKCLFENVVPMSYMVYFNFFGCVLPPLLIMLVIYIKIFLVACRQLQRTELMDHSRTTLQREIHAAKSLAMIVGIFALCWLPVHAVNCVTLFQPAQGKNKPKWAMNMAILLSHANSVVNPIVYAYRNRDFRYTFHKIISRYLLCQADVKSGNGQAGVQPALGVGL
The experiment in a line: Antagonist activity at human adenosine 2B receptor overexpressed in HEK293 cells preincubated for 0.5 hrs followed by NECA stimulation by GloSensor cAMP assay. The format is functional, cell-based.

The species named for assay [3] is Homo sapiens. The experiment in a line: Selectivity ratio of IC50 for antagonist activity at human adenosine 2A receptor overexpressed in HEK293 cells to IC50 for antagonist activity at human adenosine 2B receptor overexpressed in HEK293 cells. The format is cell-based.
Assay [4] deals with T1, Adenosine receptor A2a. The experiment in a line: Antagonist activity at adenosine 2A receptor (unknown origin).
For assay [5], the target named is T2, Adenosine receptor A2b. The experiment in a line: Antagonist activity at adenosine 2B receptor (unknown origin). The assay is classed as functional.
Assay [6] has as its target T3, Adenosine receptor A1 (Homo sapiens, UniProt P30542).
T3 sequence (P30542 whole entry): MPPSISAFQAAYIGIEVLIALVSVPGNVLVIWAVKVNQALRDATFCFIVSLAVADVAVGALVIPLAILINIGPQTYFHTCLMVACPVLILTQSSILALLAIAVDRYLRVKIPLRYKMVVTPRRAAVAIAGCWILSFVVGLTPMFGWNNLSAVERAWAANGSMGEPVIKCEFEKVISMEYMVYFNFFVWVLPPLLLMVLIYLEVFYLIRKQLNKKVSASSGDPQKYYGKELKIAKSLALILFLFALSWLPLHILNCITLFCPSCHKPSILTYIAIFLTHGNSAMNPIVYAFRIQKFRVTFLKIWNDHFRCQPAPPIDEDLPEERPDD
Kind of assay: Antagonist activity at human Adenosine A1 receptor overexpressed in HEK293 cells preincubated for 0.5 hrs followed by NECA stimulation by GloSensor cAMP assay. The assay is classed as functional, cell-based.

For assay [7], the target named is T4, Adenosine receptor A3 (Homo sapiens, UniProt P0DMS8).
T4 sequence (P0DMS8 whole entry): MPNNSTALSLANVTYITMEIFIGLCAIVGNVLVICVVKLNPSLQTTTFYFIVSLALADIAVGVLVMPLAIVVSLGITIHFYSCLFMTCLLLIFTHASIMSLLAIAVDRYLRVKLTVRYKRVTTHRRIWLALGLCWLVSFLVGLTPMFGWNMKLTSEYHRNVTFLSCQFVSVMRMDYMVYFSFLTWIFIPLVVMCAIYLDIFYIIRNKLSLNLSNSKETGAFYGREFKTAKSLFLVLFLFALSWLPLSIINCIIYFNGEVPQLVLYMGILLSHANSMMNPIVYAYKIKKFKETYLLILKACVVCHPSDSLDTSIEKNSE
Kind of assay: Antagonist activity at human Adenosine A3 receptor overexpressed in HEK293 cells preincubated for 0.5 hrs followed by NECA stimulation by GloSensor cAMP assay. The assay is classed as functional, cell-based.

Assay [8] has as its target T1, Adenosine receptor A2a. The experiment in a line: Antagonist activity at human adenosine 2A receptor expressed in HEK293 cells co-expressing CRE-luciferase plasmid assessed as inhibition of NECA-stimulated luciferase expression preincubated with compound for 0.5 hrs followed by NECA stimulation and measured after 4 hrs by luciferase based CRE reporter assay. The assay is classed as functional, cell-based.

For assay [9], the target named is T2, Adenosine receptor A2b. The experiment in a line: Antagonist activity at human adenosine 2B receptor expressed in HEK293 cells co-expressing CRE-luciferase plasmid assessed as inhibition of NECA-stimulated luciferase expression preincubated with compound for 0.5 hrs followed by NECA stimulation and measured after 4 hrs by luciferase based CRE reporter assay. The format is functional, cell-based. (In general: A reporter such as luciferase makes a cellular process visible.)

The target of assay [10] is T1, Adenosine receptor A2a. Kind of assay: Antagonist activity at human adenosine 2A receptor overexpressed in HEK293 cells preincubated for 0.5 hrs followed by NECA stimulation by Schild plot based GloSensor cAMP assay. The assay is classed as functional, cell-based. The conditions noted are these: read-out: pA2 (converted).
The target of assay [11] is T2, Adenosine receptor A2b. The experiment in a line: Antagonist activity at human adenosine 2B receptor overexpressed in HEK293 cells preincubated for 0.5 hrs followed by NECA stimulation by Schild plot based GloSensor cAMP assay. The format is functional, cell-based. The conditions noted are these: read-out: pA2 (converted).
Assay [12] is described as follows: Downregulation of NECA-induced PD-1 expression in human Jurkat T cells at 0.1 to 10 uM incubated for 5 hrs in presence of PMA and ionomycin by q-PCR analysis. The assay is classed as functional. The note with it: dose 0.1-10 µM.
Assay [13] in a line: Downregulation of NECA-induced TIM-3 expression in human Jurkat T cells at 0.1 to 10 uM incubated for 5 hrs in presence of PMA and ionomycin by q-PCR analysis. The assay is classed as functional. The note with it: dose 0.1-10 µM.
Assay [14] deals with MC38-OVA. Kind of assay: Induction of T-cell mediated cell death in mouse MC38-OVA cells co-cultured with OT-1 CTL assessed as reversal of NECA-induced impairment in OT-I CTL mediated cell killing at 10 uM incubated for 48 hrs by calcein AM dye based fluorescence microscopic analysis. The assay is classed as functional.

Take `Cc1c(C#N)cccc1-c1cc(-c2cn(Cc3cccc(C(C)(C)O)n3)nn2)nc(N)n1` [ETRUMADENANT]: the IC50 (in general, the point on the concentration scale where inhibition reaches its midpoint) amounted to 7.5 nM in assay [1], 31.4 nM in assay [2] and 87.3 nM in [6]. In addition, the Ratio IC50 in [3] was found to be 0.2. In addition, the values for the Ki in assay [4] and in [5] were 0.851 nM and 3.16 nM, respectively.

`Cc1c(C#N)cccc1-c1cc(-c2cn(Cc3c[nH]c4ccc(C#N)cc34)nn2)nc(N)n1`: the concentration for half-maximal inhibition (IC50) in [1] is 11.2 nM; in assay [2], 6.4 nM; in [6], > 1000 nM; in assay [7], > 1000 nM; in [8] it was 7.3 nM; in [9], 8.1 nM. In assay [3], the Ratio IC50 came to 1.8. Besides, the values for the Kb in assay [10] and in assay [11] were 1.62 nM and 1.32 nM, respectively. For the same molecule, the Activity in [12] and in assay [13] was ~100% each time. Also, the outcome in assay [14] was Active.
